Data: PMC6277767, “Broad and Region-Specific Impacts of the Synthetic Cannabinoid CP 55,940 in Adolescent and Adult Female Mouse Brains” (Frontiers in Molecular Neuroscience, 2018)

Test system: CD1 female mouse brain lipidome
Test: Brain-region lipid levels (HPLC/MS/MS lipidomics) 2 h after single i.p. 3 mg/kg CP 55,940 vs vehicle
Format: in vivo
Design: N-arachidonoyl phenylalanine level, Mean / N-stearoyl tryptophan level, Mean / N-stearoyl proline level, Mean / N-stearoyl leucine level, Mean / N-stearoyl phenylalanine level, Mean / N-stearoyl serine level, Mean / N-stearoyl methionine level, Mean: unit: moles per gram
Experimental: The Bloomington Institutional Animal Care and Use Committee of Indiana University reviewed and approved the animal procedures. Female mice from the CD1 strain were utilized to match our study examining THC’s effects on the brain lipidome ([Leishman et al., 2018]). Mice were given a single i.p. injection of either 3 mg/kg CP or 1:1:18 cremophor:ethanol:saline vehicle (please refer to the section “3 mg/kg CP Is Relevant for Synthetic Cannabinoid Abuse and Has Stronger Effects on the Female Mouse Brain Lipidome During Adolescence” for a justification of dose and use of female mice). Three different age groups were given injections: PND 35 and PND 50 adolescents, and adult mice (PND 113). At least eight mice in each age group received CP and at least eight received vehicle. Matching the THC study time course ([Leishman et al., 2018]), mice were sacrificed via rapid decapitation 2 h after injection. Brains were immediately removed and flash-frozen in liquid nitrogen, and then stored at -80°C until dissections were performed. Brains were dissected on an ice-cold dissection plate into the following regions: STR, HIPP, CER, THAL, CTX, HYP, MID, and STEM. These abbreviations for these brain areas will be used exclusively when discussing the results generated by these specific dissections. Each dissected area was immediately placed in liquid nitrogen and then stored at -80°C until used for lipid extraction.
Tissue extracts were performed as previously described ([Bradshaw et al., 2006]; [Stuart et al., 2013]; [Raboune et al., 2014]; [Leishman et al., 2016a],[b], [2017], [2018]). First, samples were shock frozen in liquid nitrogen, weighed, and transferred to a centrifuge tube. The mass of the largest sample was multiplied by 50 to determine how many milliliters of HPLC-grade methanol (Fisher, Fair Lawn, NJ, United States) to add. Then, samples were spiked with 500 pmol deuterium-labeled NAGly (d8NAGly; Cayman Chemical, Ann Arbor, MI, United States). Samples were placed on ice in darkness for 2 h then individually homogenized and centrifuged at 19,000 × g for 20 min at 20°C. Supernatants were diluted with HPLC water (purified in house) to make a solution of 75% water, 25% supernatant. Lipids were partially purified on C18 solid phase extraction columns (Agilent, Palo Alto, CA, United States). A series of four elutions with 1.5 mL of 60%, 75%, 85%, and 100% methanol were collected ([Stuart et al., 2013]; [Leishman et al., 2016a],[b], [2018]).
As previously described ([Bradshaw et al., 2006]; [Tan et al., 2006]; [Smoum et al., 2010]; [Stuart et al., 2013]; [Tortoriello et al., 2013]; [Raboune et al., 2014]; [Leishman et al., 2016a],[b], [2017], [2018]), samples were analyzed using an Applied Biosystems API 3000 triple quadrupole mass spectrometer with electrospray ionization (Foster City, CA, United States). Using an Agilent XDB-C18 reversed phase analytical column and optimized mobile phase gradients, 20 μL from each elution were chromatographed. Two Shimadzu 10ADvp pumps (Columbia, MD, United States) provided the pressure for gradient elution. Mobile phase A: 20% methanol, 80% water (v/v) and 1 mM ammonium acetate (Sigma, St. Louis, MO, United States). Mobile phase B: 100% methanol, 1 mM ammonium acetate. Every method run began with 0% mobile phase B, reached 100% mobile phase B flowing at 0.2 mL/min, and gradually returned to 0% mobile phase B.
This screening library will be referred to as the lipidome when discussing data from this study. HPLC/MS/MS data were analyzed using Analyst software (Applied Biosystems) ([Bradshaw et al., 2006]; [Tan et al., 2006]; [Stuart et al., 2013]; [Tortoriello et al., 2013]; [Raboune et al., 2014]; [Leishman et al., 2016a],[b], [2017], [2018]). Chromatograms (Supplementary Figure 3) were generated by determining the retention time of analytes from the analytical column with a [M-1] or [M+1] parent peak and a fragmentation peak corresponding to the programmed values. […]

[1] = adult female mice, brainstem, 3mg/kg CP 55,940
[2] = adult hypothalamus, 3 mg/kg CP 55,940

CCCCCCC(C)(C)c1ccc([C@@H]2C[C@H](O)CC[C@H]2CCCO)c(O)c1 [CP 55,940]
6-ketoPGF1α level, Mean [1]: 2.07E-11
Arachidonic acid level, Mean [1]: 4.08E-10
Linoleic acid level, Mean [1]: 4.56E-10
N- stearoyl valine level, Mean [1]: 2.21E-14
N-arachidonoyl proline level, Mean [1]: BDL
N-arachidonoyl serine level, Mean [1]: PISSR
N-arachidonoyl taurine level, Mean [1]: 2.62E-11
N-arachidonoyl tryptophan level, Mean [1]: BDL
N-arachidonoyl tyrosine level, Mean [1]: 6.33E-13
N-docosahexaenoyl proline level, Mean [1]: BDL
N-docosahexaenoyl serine level, Mean [1]: PISSR
N-docosahexaenoyl tryptophan level, Mean [1]: BDL
N-docosahexaenoyl tyrosine level, Mean [1]: 5.03E-13
N-docosahexaenoyl valine level, Mean [1]: BDL
N-linoleoyl proline level, Mean [1]: BDL
N-linoleoyl serine level, Mean [1]: 1.98E-11
N-linoleoyl tryptophan level, Mean [1]: BDL
N-linoleoyl tyrosine level, Mean [1]: PISSR
N-linoleoyl valine level, Mean [1]: PISSR
N-nervonoyl valine level, Mean [1]: BDL
N-oleoyl proline level, Mean [1]: BDL
N-oleoyl serine level, Mean [1]: 1.03E-10
N-oleoyl tryptophan level, Mean [1]: BDL
N-oleoyl tyrosine level, Mean [1]: 5.06E-13
N-oleoyl valine level, Mean [1]: 1.48E-14
N-palmitoyl proline level, Mean [1]: BDL
N-palmitoyl serine level, Mean [1]: 1.08E-11
N-palmitoyl tryptophan level, Mean [1]: BDL
N-palmitoyl tyrosine level, Mean [1]: 7.4E-13
N-palmitoyl valine level, Mean [1]: 1.28E-13
N-stearoyl proline level, Mean [1]: BDL
N-stearoyl serine level, Mean [1]: 1.31E-11
N-stearoyl tryptophan level, Mean [1]: BDL
Oleic acid level, Mean [1]: 4.28E-10
PGE2 level, Mean [1]: 1.64E-10
PhosphoLEA level, Mean [1]: 2.15E-12
2-arachidonoyl glycerol level, Mean [2]: 2.11E-09
2-linoleoyl glycerol level, Mean [2]: 1.7E-10
2-oleoyl glycerol level, Mean [2]: 1.71E-09
2-palmitoyl glycerol level, Mean [2]: 1.78E-10
6-ketoPGF1α level, Mean [2]: 2.15E-11
11-OH-THC level, Mean [2]: BDL
11-nor-9-carboxyTHC level, Mean [2]: BDL
Arachidonic acid level, Mean [2]: 6.14E-10
Cannabidiol level, Mean [2]: BDL
Linoleic acid level, Mean [2]: 1.2E-10
N-arachidonoyl GABA level, Mean [2]: 2.05E-11
N-arachidonoyl dopamine level, Mean [2]: BDL
N-arachidonoyl ethanolamine level, Mean [2]: 6.61E-12
N-arachidonoyl glycine level, Mean [2]: 2.96E-13
N-arachidonoyl methionine level, Mean [2]: BDL
N-arachidonoyl phenylalanine level, Mean [2]: 1.34E-13
N-arachidonoyl proline level, Mean [2]: BDL
N-arachidonoyl serine level, Mean [2]: BDL
N-arachidonoyl taurine level, Mean [2]: 1.91E-11
N-arachidonoyl tryptophan level, Mean [2]: BDL
N-docosahexaenoyl ethanolamine level, Mean [2]: 1.18E-11
N-docosahexaenoyl methionine level, Mean [2]: BDL
N-docosahexaenoyl proline level, Mean [2]: BDL
N-docosahexaenoyl tryptophan level, Mean [2]: BDL
N-docosahexaenoyl valine level, Mean [2]: BDL
N-linoleoyl GABA level, Mean [2]: BDL
N-linoleoyl ethanolamine level, Mean [2]: 6.58E-12
N-linoleoyl methionine level, Mean [2]: BDL
N-linoleoyl proline level, Mean [2]: BDL
N-linoleoyl serine level, Mean [2]: 1.16E-10
N-linoleoyl tryptophan level, Mean [2]: BDL
N-linoleoyl tyrosine level, Mean [2]: BDL
N-linoleoyl valine level, Mean [2]: BDL
N-nervonoyl valine level, Mean [2]: BDL
N-oleoyl alanine level, Mean [2]: 4.79E-12
N-oleoyl dopamine level, Mean [2]: BDL
N-oleoyl ethanolamine level, Mean [2]: 7.29E-11
N-oleoyl glycine level, Mean [2]: 2.66E-13
N-oleoyl methionine level, Mean [2]: BDL
N-oleoyl phenylalanine level, Mean [2]: 5E-13
N-oleoyl proline level, Mean [2]: BDL
N-oleoyl serine level, Mean [2]: 5.82E-10
N-oleoyl tryptophan level, Mean [2]: BDL
N-palmitoyl GABA level, Mean [2]: 3.12E-11
N-palmitoyl alanine level, Mean [2]: 2.7E-12
N-palmitoyl ethanolamine level, Mean [2]: 2.56E-11
N-palmitoyl glycine level, Mean [2]: 2.34E-12
N-palmitoyl leucine level, Mean [2]: 1.88E-12
N-palmitoyl methionine level, Mean [2]: BDL
N-palmitoyl phenylalanine level, Mean [2]: 3.42E-13
N-palmitoyl proline level, Mean [2]: BDL
N-palmitoyl tryptophan level, Mean [2]: BDL
N-palmitoyl tyrosine level, Mean [2]: 1.11E-12
N-palmitoyl valine level, Mean [2]: 1.56E-13
N-stearoyl alanine level, Mean [2]: 2.77E-12
N-stearoyl ethanolamine level, Mean [2]: 7.07E-12
N-stearoyl glycine level, Mean [2]: 2.2E-12
N-stearoyl leucine level, Mean [2]: 1.65E-12
N-stearoyl methionine level, Mean [2]: BDL
N-stearoyl phenylalanine level, Mean [2]: 2.86E-13
N-stearoyl proline level, Mean [2]: BDL
N-stearoyl serine level, Mean [2]: 4.88E-11
N-stearoyl tryptophan level, Mean [2]: BDL
Oleic acid level, Mean [2]: 2.14E-10
PGE2 level, Mean [2]: 2.25E-10
PhosphoLEA level, Mean [2]: 5.73E-11
